In article PMC7940615 (Scientific Reports, 2021):

Tests used:
SARS-CoV-2 [1] = test: Antiviral assay in Vero E6 cells, immunofluorescence of nucleocapsid protein; type: cell-based; details: 72 h post infection; for IC50: immunofluorescence, MOI 0.1, read-out: IC50, inhibition of SARS-CoV-2 replication
SARS-CoV-2 [2] = test: Antiviral assay in human lung A549 cells (ACE2, TMPRSS2), immunofluorescence of nucleocapsid protein; type: cell-based; details: human lung A549 cells expressing ACE2 and TMPRSS2
SARS-CoV-2 [3] = test: Viral RNA by qRT-PCR in culture medium of Vero E6 cells; type: cell-based
SARS-CoV-2 [4] = test: Viral RNA by qRT-PCR in culture medium of human lung A549 cells; type: cell-based
in vitro = details: human
SARS-CoV-2 [5] = details: Vero E6 cells; famotidine 0.32–200 µM; remdesivir 0.1–62.5 µM
[6] = blood of patients in both clinical studies; cited from earlier work
[7] = system: hospitalized COVID-19 patients; details: 1620 patients; total median dose of 136 mg, oral or IV once daily, 6 days; cited from earlier work
[8] = system: non-hospitalized patients; details: 10 non-hospitalized patients; oral 240 mg per day for a median of 11 days; cited from earlier work

SMILES | IC50 (SARS-CoV-2 [1]; Severe acute respiratory syndrome coronavirus 2, Vero C1008, 72 h) [µM] | IC50 (SARS-CoV-2 [1]) [µM] | IC50 (SARS-CoV-2 [2]; Severe acute respiratory syndrome coronavirus 2, immunofluorescence, 72 h post infection, MOI 0.1, read-out: IC50, inhibition of SARS-CoV-2 replication) [µM] | effect on viral RNA copies (qRT-PCR, E gene) (SARS-CoV-2 [3]) | effect on viral RNA copies (qRT-PCR, E gene) (SARS-CoV-2 [4]) | cytotoxicity (in words) (Vero E6 cells) | cytotoxicity (in words) (human lung A549 cells) | CC50 (in vitro) [µM] | antiviral effect on virus yield (plaque formation) (SARS-CoV-2 [5]) | inhibition of SARS-CoV-2 replication (in words) (SARS-CoV-2 [1]; concentrations of up to 200 μM) | inhibition of SARS-CoV-2 replication (in words) (SARS-CoV-2 [2]; 0.32–200 µM, 72 h) | peak plasma concentrations [6] [µM] | risk of death or intubation [7] | patient-reported symptoms such as shortness of breath and cough [8]
CCC(CC)COC(=O)[C@H](C)N[P@](=O)(OC[C@H]1O[C@@](C#N)(c2ccc3c(N)ncnn23)[C@H](O)[C@@H]1O)Oc1ccccc1 [Remdesivir, remdesivir] | 3.3 | 3.37 | 0.43 | dose-dependent | dose-dependent | dose-dependent cytotoxicity at higher concentrations | dose-dependent cytotoxicity at higher concentrations | 14.6 | dose-dependent antiviral effect | – | – | – | – | –
NC(N)=Nc1nc(CSCCC(N)=NS(N)(=O)=O)cs1 [Famotidine] | – | – | – | no effect | no effect | – | – | – | no effect on limiting virus plaque formation | did not produce any measurable inhibition | no measurable effect | 0.5 to 2 | reduced risk of death or intubation | patient-reported improvements in symptoms
